Test [1] addresses T1, Tyrosine-protein kinase JAK3 (Homo sapiens, UniProt P52333).
T1 sequence (P52333 whole entry): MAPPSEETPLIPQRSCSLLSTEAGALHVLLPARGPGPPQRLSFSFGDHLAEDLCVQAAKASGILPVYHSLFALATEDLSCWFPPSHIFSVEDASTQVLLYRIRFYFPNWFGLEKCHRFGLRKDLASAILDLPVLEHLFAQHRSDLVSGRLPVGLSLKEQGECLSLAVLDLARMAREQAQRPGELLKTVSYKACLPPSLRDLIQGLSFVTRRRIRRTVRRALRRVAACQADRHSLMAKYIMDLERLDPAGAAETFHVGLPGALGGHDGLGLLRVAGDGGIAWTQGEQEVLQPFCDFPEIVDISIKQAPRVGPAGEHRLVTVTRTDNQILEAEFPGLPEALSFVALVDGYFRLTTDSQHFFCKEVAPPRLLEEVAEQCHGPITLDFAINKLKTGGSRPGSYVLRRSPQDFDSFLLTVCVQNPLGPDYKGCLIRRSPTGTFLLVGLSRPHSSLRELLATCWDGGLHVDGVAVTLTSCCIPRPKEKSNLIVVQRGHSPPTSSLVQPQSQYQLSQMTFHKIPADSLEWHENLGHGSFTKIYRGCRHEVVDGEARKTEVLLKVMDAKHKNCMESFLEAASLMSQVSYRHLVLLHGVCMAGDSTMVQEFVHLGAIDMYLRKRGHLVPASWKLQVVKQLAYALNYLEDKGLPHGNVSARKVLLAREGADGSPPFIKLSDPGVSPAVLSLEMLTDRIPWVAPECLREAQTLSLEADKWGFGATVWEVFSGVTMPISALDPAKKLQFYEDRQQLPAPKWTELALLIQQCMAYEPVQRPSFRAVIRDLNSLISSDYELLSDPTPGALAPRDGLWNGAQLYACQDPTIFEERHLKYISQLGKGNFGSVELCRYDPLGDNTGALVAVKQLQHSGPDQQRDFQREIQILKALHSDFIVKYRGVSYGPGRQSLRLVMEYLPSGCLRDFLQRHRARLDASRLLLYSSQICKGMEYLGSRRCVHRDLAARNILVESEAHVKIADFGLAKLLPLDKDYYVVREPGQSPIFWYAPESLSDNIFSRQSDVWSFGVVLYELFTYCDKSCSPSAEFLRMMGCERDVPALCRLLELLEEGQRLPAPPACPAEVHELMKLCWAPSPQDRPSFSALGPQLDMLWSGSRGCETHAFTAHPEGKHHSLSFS
As to the kind of experiment: JAK3 Inhibition Assay: Compounds of Formula I were screened for their ability to inhibit JAK3 using the general enzyme inhibition assay method, in which the assay mixture contained 1 mM ATP, 10 μM Omnia® Y7 peptide (Catalog # IVGN KNZ3071C, Invitrogen Corporation, Carlsbad, Calif.) and 2 nM JAK3 in a total volume of 25 μL. JAK3 was purchased from Invitrogen Corporation, Carlsbad, Calif. (catalog # IVGN PV4080).

Test [2] deals with Non-receptor tyrosine-protein kinase TYK2 (Homo sapiens, UniProt P29597). As to the kind of experiment: Tyk2 Inhibition Assay: Compounds of Formula I were screened for their ability to inhibit Tyk2 using the general enzyme inhibition assay method, in which the assay mixture contained 1 mM ATP, 8 μM Omnia Y12 peptide (Catalog # IVGN KPZ3121C; Invitrogen Corporation, Carlsbad, Calif.) and 1 nM Tyk2 in a total volume of 25 μL. Human Tyk2 kinase domain, comprising amino acids 886 to 1187 with 10 additional histidine residues (histidine tag) on the carboxy terminus, was expressed and purified from bacculovirus in-house at Array BioPharma Inc. (Boulder, Colo.). The histidine tag was cleaved after purification using standard conditions.
Sequence of Non-receptor tyrosine-protein kinase TYK2 (P29597 whole entry, the tested form may be a part): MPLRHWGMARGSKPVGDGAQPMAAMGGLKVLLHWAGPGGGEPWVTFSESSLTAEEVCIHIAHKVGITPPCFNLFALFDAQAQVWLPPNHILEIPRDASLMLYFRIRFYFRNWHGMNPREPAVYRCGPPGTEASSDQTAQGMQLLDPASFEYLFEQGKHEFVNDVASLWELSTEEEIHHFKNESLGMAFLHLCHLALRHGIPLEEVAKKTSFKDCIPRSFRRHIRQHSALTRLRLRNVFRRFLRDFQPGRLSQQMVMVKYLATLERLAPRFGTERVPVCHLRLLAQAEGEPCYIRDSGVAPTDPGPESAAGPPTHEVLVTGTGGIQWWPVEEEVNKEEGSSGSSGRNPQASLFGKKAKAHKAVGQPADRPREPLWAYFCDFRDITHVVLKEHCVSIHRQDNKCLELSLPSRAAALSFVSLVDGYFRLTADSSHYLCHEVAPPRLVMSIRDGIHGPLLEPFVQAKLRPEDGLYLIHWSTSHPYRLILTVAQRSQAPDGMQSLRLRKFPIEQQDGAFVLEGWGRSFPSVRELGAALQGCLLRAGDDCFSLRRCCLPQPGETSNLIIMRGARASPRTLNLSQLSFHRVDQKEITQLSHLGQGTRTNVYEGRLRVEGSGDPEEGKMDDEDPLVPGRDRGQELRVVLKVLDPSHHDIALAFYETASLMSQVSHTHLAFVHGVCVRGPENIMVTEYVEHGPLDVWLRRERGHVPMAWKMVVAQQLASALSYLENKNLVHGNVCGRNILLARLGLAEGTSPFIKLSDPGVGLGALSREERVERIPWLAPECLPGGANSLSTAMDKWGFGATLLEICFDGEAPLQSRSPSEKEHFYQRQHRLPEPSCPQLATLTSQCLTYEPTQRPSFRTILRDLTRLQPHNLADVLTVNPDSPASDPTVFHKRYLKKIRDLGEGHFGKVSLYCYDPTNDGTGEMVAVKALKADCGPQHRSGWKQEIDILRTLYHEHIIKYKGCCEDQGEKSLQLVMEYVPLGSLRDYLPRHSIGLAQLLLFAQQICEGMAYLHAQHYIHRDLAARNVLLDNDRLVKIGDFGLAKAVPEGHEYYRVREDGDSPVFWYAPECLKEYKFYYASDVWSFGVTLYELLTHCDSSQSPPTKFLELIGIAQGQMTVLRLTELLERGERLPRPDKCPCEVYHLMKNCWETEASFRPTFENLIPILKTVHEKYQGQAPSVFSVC

IC50 data for three molecules are collected here from ChEMBL document CHEMBL5726221, “4,6-substituted-pyrazolo[1,5-a]pyrazines as janus kinase inhibitors” (2019).

SMILES strings stand for the structures.

On to `CCC(CC)n1cc(-c2nc(-c3cnn([C@H]4C[C@@](O)(CO)C4)c3)cn3nccc23)cn1`, for which the IC50 (in general, the concentration that gives 50% inhibition) in test [1] is “in the range around 5.5 µM”. On to `CCC(CC)n1cc(-c2nc(-c3cnn([C@H]4C[C@@H](O)[C@@H](O)C4)c3)cn3nccc23)cn1`, for which the results for the IC50 entry in test [2] and in test [1] were “in the range around 0.055 µM” and “in the range around 5.5 µM”, respectively.

For the molecule `CCC(CC)n1cc(-c2nc(-c3cnn(CC4CC(CO)C4)c3)cn3nccc23)cn1` (centres undefined), the IC50 entry in test [1] was “in the range around 5.5 µM”.
